Measurements reported in patent US7285564B2, “Substituted 4-amino-1-(pyridylmethyl)piperidine and related compounds” (Theravance, Inc., priority 2002, dated 2007).

System: volume-induced bladder contractions
Assay: In vivo rat bladder assay
Conditions: intravenous; anesthetized female Sprague-Dawley rats; normalized to atropine response
Protocol: Female Sprague-Dawley rats (Harlan, Indianapolis, Ind.) weighing 200 to 300 g were anesthetized with urethane (1.5 g/kg, s.c., Sigma, St. Louis, Mo.), with a supplement of 0.25 g/kg, s.c. urethane as needed. Urethane was administered at a concentration of 0.25 g/mL.
Rats were prepared for surgery by shaving the neck and abdomen and cleansing with ethanol wipes. First, an incision was made on the ventral surface. An intravenous catheter was placed by isolating and ligating the femoral vein. […]
Thereafter, an intravenous dose of the test compound was administered and changes in VIBCAmp were recorded for 15 minutes. Atropine (0.1 mg/kg) was then administered intravenously (1 mL/kg) as a positive control and VIBCAmp and data was recorded for an additional 15 minutes. […]
Alternatively, after the vehicle, increasing cumulative intravenous doses of the test compound were administered at 15 minute intervals (1 mL/kg) and changes in VIBCAmp were recorded for 15 minutes. […]
The average VIBCAmp during the 5-15 minute period after test compound and atropine was determined and subtracted from the average VIBCAmp during the 5-15 minute post-vehicle period to obtain the test compound or atropine-induced change in VIBCAmp. […]

For COc1ccncc1CN1CCC(N(CCCCCCCN2CC[C@@H](C(C(N)=O)(c3ccccc3)c3ccccc3)C2)C(C)C)CC1 [Example 1], the “ID50 (volume-induced bladder contraction amplitude)” value was “less than or equal to 0.1 mg/kg”.
